In ChEMBL document CHEMBL1201862, “PubChem BioAssay data set” (2004):
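96-well plates; 48 h exposure; 5 concentrations. Endpoints by linear interpolation between flanking doses. Not reached: highest tested concentration assigned. GI50 marks 50% less growth.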 Activity calls are given as the source filed them. Cut-off read from the data, not from the text of the source: active = GI50 up to about 1.1 µM and inactive = higher.

Assays:
Test in all cases: NCI-60 cell line screen, 48 h
[1] = tested on: 786-0
[2] = tested on: A498
[3] = tested on: A549
[4] = tested on: ACHN
[5] = tested on: CAKI-1
[6] = tested on: CCRF-CEM
[7] = tested on: COLO 205
[8] = tested on: DMS-114
[9] = tested on: DMS-273
[10] = tested on: EKVX
[11] = tested on: HCT-116
[12] = tested on: HCT-15
[13] = tested on: HL-60
[14] = tested on: HOP-62
[15] = tested on: HOP-92
[16] = tested on: HT-29
[17] = tested on: IGROV-1
[18] = tested on: K562
[19] = tested on: KM12
[20] = tested on: LOX IMVI
[21] = tested on: LXFL 529
[22] = tested on: M14
[23] = tested on: M19-MEL
[24] = tested on: MOLT-4
[25] = tested on: Malme-3M
[26] = tested on: NCI-H23
[27] = tested on: NCI-H460
[28] = tested on: NCI-H522
[29] = tested on: OVCAR-3
[30] = tested on: OVCAR-4
[31] = tested on: OVCAR-5
[32] = tested on: OVCAR-8
[33] = tested on: RPMI-8226
[34] = tested on: RXF 393
[35] = tested on: RXF 631
[36] = tested on: SF-268
[37] = tested on: SF-295
[38] = tested on: SF-539
[39] = tested on: SK-MEL-28
[40] = tested on: SK-MEL-2
[41] = tested on: SK-MEL-5
[42] = tested on: SK-OV-3
[43] = tested on: SN12C
[44] = tested on: SNB-19
[45] = tested on: SNB-75
[46] = tested on: SNB-78
[47] = tested on: SW-620
[48] = tested on: TK-10
[49] = tested on: U-251
[50] = tested on: UACC-257
[51] = tested on: UACC-62
[52] = tested on: UO-31
[53] = tested on: XF498
[54] = tested on: DLD-1
[55] = tested on: HCC 2998
[56] = tested on: KM-20L2
[57] = tested on: NCI-H226
[58] = tested on: HOP-18

O=P(CN1CCOCC1)(c1ccccc1)c1ccccc1
GI50 [1]: > 100 µM (inactive)
GI50 [2]: > 100 µM (inactive)
GI50 [3]: > 100 µM (inactive)
GI50 [4]: > 100 µM (inactive)
GI50 [5]: > 100 µM (inactive)
GI50 [6]: > 100 µM (inactive)
GI50 [7]: > 100 µM (inactive)
GI50 [8]: > 100 µM (inactive)
GI50 [9]: > 100 µM (inactive)
GI50 [10]: > 100 µM (inactive)
GI50 [11]: > 100 µM (inactive)
GI50 [12]: > 100 µM
GI50 [13]: > 100 µM (inactive)
GI50 [14]: > 100 µM (inactive)
GI50 [15]: > 100 µM (inactive)
GI50 [16]: > 100 µM (inactive)
GI50 [17]: > 100 µM (inactive)
GI50 [18]: > 100 µM (inactive)
GI50 [19]: > 100 µM (inactive)
GI50 [20]: > 100 µM (inactive)
GI50 [21]: > 100 µM (inactive)
GI50 [22]: > 100 µM (inactive)
GI50 [23]: > 100 µM (inactive)
GI50 [24]: > 100 µM (inactive)
GI50 [25]: > 100 µM (inactive)
GI50 [26]: > 100 µM (inactive)
GI50 [27]: > 100 µM (inactive)
GI50 [28]: > 100 µM (inactive)
GI50 [29]: > 100 µM (inactive)
GI50 [30]: > 100 µM (inactive)
GI50 [31]: > 100 µM (inactive)
GI50 [32]: > 100 µM (inactive)
GI50 [33]: > 100 µM (inactive)
GI50 [34]: > 100 µM (inactive)
GI50 [35]: > 100 µM (inactive)
GI50 [36]: > 100 µM (inactive)
GI50 [37]: > 100 µM (inactive)
GI50 [38]: > 100 µM (inactive)
GI50 [39]: > 100 µM (inactive)
GI50 [40]: > 100 µM (inactive)
GI50 [41]: > 100 µM (inactive)
GI50 [42]: > 100 µM (inactive)
GI50 [43]: > 100 µM (inactive)
GI50 [44]: > 100 µM (inactive)
GI50 [45]: > 100 µM (inactive)
GI50 [46]: > 100 µM (inactive)
GI50 [47]: > 100 µM (inactive)
GI50 [48]: > 100 µM (inactive)
GI50 [49]: > 100 µM (inactive)
GI50 [50]: > 100 µM (inactive)
GI50 [51]: > 100 µM (inactive)
GI50 [52]: > 100 µM (inactive)
GI50 [53]: > 100 µM (inactive)

CC(C)(CN1CCCCC1)C(=O)CC(SCCN)c1ccc(Cl)cc1 (stereo not given)
GI50 [1]: 1.61 µM (inactive)
GI50 [2]: 2.32 µM (inactive)
GI50 [3]: 2.88 µM (inactive)
GI50 [4]: 2.78 µM (inactive)
GI50 [5]: 1.71 µM (inactive)
GI50 [6]: 1.55 µM (inactive)
GI50 [7]: 1.6 µM (inactive)
GI50 [54]: 1.59 µM (inactive)
GI50 [8]: 1.58 µM (inactive)
GI50 [9]: 1.98 µM (inactive)
GI50 [10]: 1.74 µM (inactive)
GI50 [55]: 1.85 µM (inactive)
GI50 [11]: 2.37 µM (inactive)
GI50 [12]: 1.63 µM
GI50 [14]: 3.78 µM (inactive)
GI50 [16]: 1.95 µM (inactive)
GI50 [17]: 2.7 µM (inactive)
GI50 [18]: 1.18 µM (inactive)
GI50 [56]: 1.67 µM (inactive)
GI50 [19]: 1.88 µM (inactive)
GI50 [20]: 2.09 µM (inactive)
GI50 [21]: 1.75 µM (inactive)
GI50 [22]: 1.82 µM (inactive)
GI50 [23]: 2.28 µM (inactive)
GI50 [24]: 1.72 µM (inactive)
GI50 [25]: 3.1 µM (inactive)
GI50 [57]: 3.52 µM (inactive)
GI50 [26]: 1.95 µM (inactive)
GI50 [27]: 2.11 µM (inactive)
GI50 [28]: 2.18 µM (inactive)
GI50 [29]: 1.55 µM (inactive)
GI50 [30]: 3.1 µM (inactive)
GI50 [31]: 3.66 µM (inactive)
GI50 [32]: 2.04 µM (inactive)
GI50 [33]: 1.38 µM (inactive)
GI50 [34]: 1.81 µM (inactive)
GI50 [35]: 3.94 µM (inactive)
GI50 [36]: 2.78 µM (inactive)
GI50 [37]: 3.22 µM (inactive)
GI50 [38]: 1.66 µM (inactive)
GI50 [39]: 3.43 µM (inactive)
GI50 [40]: 1.7 µM (inactive)
GI50 [41]: 1.73 µM (inactive)
GI50 [42]: 2.6 µM (inactive)
GI50 [43]: 1.49 µM (inactive)
GI50 [44]: 1.78 µM (inactive)
GI50 [45]: 1.98 µM (inactive)
GI50 [46]: 2.56 µM (inactive)
GI50 [47]: 1.76 µM (inactive)
GI50 [48]: 2.26 µM (inactive)
GI50 [49]: 3.12 µM (inactive)
GI50 [50]: 2.09 µM (inactive)
GI50 [51]: 1.65 µM (inactive)
GI50 [52]: 3.35 µM (inactive)
GI50 [53]: 1.71 µM (inactive)

O=C(/C=C/c1ccc(Cl)c(Cl)c1)C1CCC(Cl)CC1 (stereo not given)
GI50 [1]: 16.8 µM (inactive)
GI50 [2]: 22.4 µM (inactive)
GI50 [3]: 20 µM (inactive)
GI50 [4]: 17.1 µM (inactive)
GI50 [5]: 21.3 µM (inactive)
GI50 [7]: 21.8 µM (inactive)
GI50 [54]: 15.6 µM (inactive)
GI50 [8]: 16.3 µM (inactive)
GI50 [9]: 16.8 µM (inactive)
GI50 [10]: 17.4 µM (inactive)
GI50 [55]: 17.2 µM (inactive)
GI50 [11]: 11.8 µM (inactive)
GI50 [12]: 18.2 µM
GI50 [58]: 27.5 µM (inactive)
GI50 [14]: 57.3 µM (inactive)
GI50 [15]: 36.7 µM (inactive)
GI50 [16]: 16.3 µM (inactive)
GI50 [17]: 17.1 µM (inactive)
GI50 [56]: 20.7 µM (inactive)
GI50 [19]: 19.2 µM (inactive)
GI50 [20]: 16.1 µM (inactive)
GI50 [21]: 18.2 µM (inactive)
GI50 [22]: 18.5 µM (inactive)
GI50 [23]: 17.3 µM (inactive)
GI50 [25]: 18.5 µM (inactive)
GI50 [57]: 31.2 µM (inactive)
GI50 [26]: 17.9 µM (inactive)
GI50 [27]: 23.2 µM (inactive)
GI50 [28]: 16.7 µM (inactive)
GI50 [29]: 15 µM (inactive)
GI50 [30]: 17 µM (inactive)
GI50 [31]: 17.4 µM (inactive)
GI50 [32]: 18.8 µM (inactive)
GI50 [33]: 4.69 µM (inactive)
GI50 [34]: 17.9 µM (inactive)
GI50 [35]: 18.5 µM (inactive)
GI50 [36]: 19.5 µM (inactive)
GI50 [37]: 21 µM (inactive)
GI50 [38]: 18.4 µM (inactive)
GI50 [39]: 17.5 µM (inactive)
GI50 [41]: 18.3 µM (inactive)
GI50 [42]: 18.1 µM (inactive)
GI50 [43]: 17.7 µM (inactive)
GI50 [44]: 17.7 µM (inactive)
GI50 [45]: 19.8 µM (inactive)
GI50 [46]: 21.9 µM (inactive)
GI50 [47]: 16.9 µM (inactive)
GI50 [48]: 32.7 µM (inactive)
GI50 [49]: 15.1 µM (inactive)
GI50 [50]: 18.5 µM (inactive)
GI50 [51]: 17 µM (inactive)
GI50 [52]: 18.4 µM (inactive)
GI50 [53]: 16 µM (inactive)

COC1=C2C[C@H](O)C(C)C[C@@]2(OC)OC1=O (stereo not given in full)
GI50 [1]: > 100 µM (inactive)
GI50 [2]: > 100 µM (inactive)
GI50 [3]: > 100 µM (inactive)
GI50 [5]: > 100 µM (inactive)
GI50 [6]: > 100 µM (inactive)
GI50 [7]: > 100 µM (inactive)
GI50 [54]: > 100 µM (inactive)
GI50 [9]: > 100 µM (inactive)
GI50 [55]: > 100 µM (inactive)
GI50 [11]: > 100 µM (inactive)
GI50 [12]: > 100 µM
GI50 [13]: > 100 µM (inactive)
GI50 [14]: > 100 µM (inactive)
GI50 [15]: > 100 µM (inactive)
GI50 [16]: > 100 µM (inactive)
GI50 [17]: > 100 µM (inactive)
GI50 [18]: > 100 µM (inactive)
GI50 [19]: > 100 µM (inactive)
GI50 [20]: > 100 µM (inactive)
GI50 [21]: > 100 µM (inactive)
GI50 [22]: > 100 µM (inactive)
GI50 [23]: > 100 µM (inactive)
GI50 [24]: > 100 µM (inactive)
GI50 [25]: > 100 µM (inactive)
GI50 [26]: > 100 µM (inactive)
GI50 [27]: > 100 µM (inactive)
GI50 [28]: > 100 µM (inactive)
GI50 [29]: > 100 µM (inactive)
GI50 [30]: > 100 µM (inactive)
GI50 [33]: > 100 µM (inactive)
GI50 [34]: > 100 µM (inactive)
GI50 [35]: > 100 µM (inactive)
GI50 [36]: > 100 µM (inactive)
GI50 [37]: > 100 µM (inactive)
GI50 [38]: > 100 µM (inactive)
GI50 [39]: > 100 µM (inactive)
GI50 [40]: > 100 µM (inactive)
GI50 [41]: > 100 µM (inactive)
GI50 [42]: > 100 µM (inactive)
GI50 [43]: > 100 µM (inactive)
GI50 [44]: > 100 µM (inactive)
GI50 [45]: > 100 µM (inactive)
GI50 [46]: > 100 µM (inactive)
GI50 [47]: > 100 µM (inactive)
GI50 [49]: > 100 µM (inactive)
GI50 [50]: > 100 µM (inactive)
GI50 [51]: > 100 µM (inactive)
GI50 [52]: > 100 µM (inactive)
GI50 [53]: > 100 µM (inactive)
